From PubChem BioAssay AID2060342 (Molecular Pharmacology Branch, DTP, NCI, 2025)
Several values for one entry are separate records, joined by “and”; a condition that tells them apart may be missing. Equal entries are not always repeated.

Test system: 171881-019-R-J1-PDC multicell spheroid viability
Test: Anticancer human tumor 171881-019-R-J1-PDC patient-derived invasive breast carcinoma cell line growth inhibition [IpAb]
Settings: for viability, T/C: stronger effect = lower value
Source text: Combinatorial screen of targeted agents with ipatasertib and abemaciclib in multi-cell type tumor spheroids
A high-throughput screen of multi-cell type tumor spheroids was designed to identify active combinations of targeted small molecules and ipatasertib or abemaciclib. Complex spheroids include a stromal component modeled by human endothelial cells (HUVEC) and fibroblasts modeled by human mesenchymal stem cells (MSCs). The concentration ranges selected for each drug and investigational agent were based upon clinically achievable concentrations if the clinical Cmax of the agent was known.
Compounds. The drugs and investigational agents: ipatasertib (NSC767898), abemaciclib(NSC768073), selumetinib (NSC741078), trametinib (758246), adavosertib (NSC754352), everolimus (NSC733504), sapanisertib (NSC764658), vemurafenib (NSC761431), venetoclax (NSC766270), copanlisib (NSC809693), apelisib (NSC765974), palbociblib (NSC758247), vemurafenib (NSC761431), dabrafenib (NSC764134), ravoxertinib (NSC781343), BMS-387032 (NSC767048), sotorasib (NSC818433), talazoparib (NSC767125) and afursertib (NSC778305), were obtained from the National Cancer Institute (NCI) Developmental Therapeutics Program Chemical Repository. The FDA-approved anticancer drug set is available from the NCI Developmental Therapeutics Program. […] The stock solutions were prepared in dimethyl sulfoxide (DMSO, Sigma-Aldrich, St. Louis, MO, cat. D2650) at 800-fold the tested concentration and stored at -70 degrees C prior to their use. All drugs and investigational agents were tested over a range starting from a high concentration at or near the clinical Cmax and decreasing in half-log increments. If the clinical Cmax for an agent had not been determined, the highest concentration tested was 10 microM.
NCI60 Cell Culture. NCI60 cell lines were obtained from the NCI Developmental Therapeutics Program Tumor Repository. For each lot of cells, the Repository performed Applied Biosystems AmpFLSTR Identifiler testing with PCR amplification to confirm consistency with the published Identifier STR profile for each cell line. Cells were kept in continuous culture for no more than 20 passages. The optimal seeding densities for each of the cell lines at each time point assessed were determined prior to performing the concentration response studies. Briefly, the NCI60 human tumor lines were grown as monolayers in RPMI 1640 medium supplemented with 10% FBS and 2 mmol/L L-glutamine.
An additional 9 lines were from the NCI60 cell line panel including MDA-MB-231 breast carcinoma, MDA-MB-468 breast carcinoma, MCF7 breast carcinoma, Hs578T breast carcinoma, MALME-3M melanoma, SK-MEL-2 melanoma, SK-OV-3 ovarian carcinoma, DU-145 prostate carcinoma, PC-3 prostate carcinoma, all cell lines along with major genetic alterations are listed on Table 2. Pooled donor human umbilical vein endothelial cells (HUVEC, Lonza, cat. CC-2519) and human mesenchymal stem cells (hMSC, Lonza, cat. PT-2501) were purchased from Lonza (Walkersville, MD).
PDMR cell lines were grown in complete medium (DC medium): Dulbecco's modified Eagle's medium (DMEM)/F12 supplemented with 5% fetal bovine serum (FBS), 2 mM L-glutamine, 100 U/mL penicillin and 100 µg/ml streptomycin, 0.4 µg/ml hydrocortisone, 10 ng/ml epidermal growth factor (EGF) recombinant human protein, 24 µg/mL adenine, and 0.1 mg/mL primocin. During culture from frozen stock vials, PDMR cells were cultured in the same medium containing 10 µM Y-27632 (see Table 3). The PDCs were cultured in complete DMEM/F12 media without 10 microM Y-27632 dihydrochloride for at least two passages prior to the screen. The pooled donor HUVEC and hMSC were cultured in endothelial cell growth medium 2 (PromoCell, Heidelberg, Germany, cat. C-22011) and mesenchymal stem cell growth medium 2 (PromoCell, cat. C-28009), respectively. For all experiments, HUVEC and hMSC were used at passages </=5.
[…]
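Also: spheroids exposed to the agents for seven days before readout.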

C=CCn1c(=O)c2cnc(Nc3ccc(N4CCN(C)CC4)cc3)nc2n1-c1cccc(C(C)(C)O)n1
viability, T/C (compound 0.0316 µM): 89.9% and 111% | viability, T/C (compound 0.1 µM): 106% and 111% | viability, T/C (compound 0.316 µM): 104% and 133% | viability, T/C (compound 1 µM): 35.1% and 43.7% | viability, T/C (compound 3.16 µM): 28.2% and 27.2% | viability, T/C (compound 10 µM): 27.9% and 24.9% | IC50 (curve of compound): 0.768 µM and 0.786 µM

CC1(C)CCC(CN2CCN(c3ccc(C(=O)NS(=O)(=O)c4ccc(NCC5CCOCC5)c([N+](=O)[O-])c4)c(Oc4cnc5[nH]ccc5c4)c3)CC2)=C(c2ccc(Cl)cc2)C1
viability, T/C (compound 0.0316 µM): 107% and 93.6% | viability, T/C (compound 0.1 µM): 102% and 84.1% | viability, T/C (compound 0.316 µM): 93.8% and 78.3% | viability, T/C (compound 1 µM): 92.5% and 66.3% | viability, T/C (compound 3.16 µM): 89.8% and 87.8% | viability, T/C (compound 10 µM): 23.9% and 16.5% | IC50 (curve of compound): 6.28 µM and 5.55 µM

Cn1ncnc1[C@H]1c2n[nH]c(=O)c3cc(F)cc(c23)N[C@@H]1c1ccc(F)cc1
viability, T/C (compound 0.000316 µM): 100% and 93.4% | viability, T/C (compound 0.001 µM): 111% and 93.9% | viability, T/C (compound 0.00316 µM): 116% | viability, T/C (compound 0.01 µM): 108% and 101% | viability, T/C (compound 0.0316 µM): 109% and 111% | viability, T/C (compound 0.1 µM): 128% and 123% | IC50 (curve of compound): > 0.1 µM

Cn1ncnc1[C@H]1c2n[nH]c(=O)c3cc(F)cc(c23)N[C@@H]1c1ccc(F)cc1 + CCN1CCN(Cc2ccc(Nc3ncc(F)c(-c4cc(F)c5nc(C)n(C(C)C)c5c4)n3)nc2)CC1
IC50 (curve of first compound, second compound 0.01 µM): > 0.1 µM | IC50 (curve of first compound, second compound 0.0316 µM): > 0.1 µM | IC50 (curve of first compound, second compound 0.1 µM): > 0.1 µM | IC50 (curve of first compound, second compound 0.316 µM): > 0.1 µM | IC50 (curve of first compound, second compound 1 µM): > 0.1 µM | viability, T/C (second compound 0.01 µM, first compound 0.000316 µM): 88.2% | viability, T/C (second compound 0.01 µM, first compound 0.001 µM): 99.7% | viability, T/C (second compound 0.01 µM, first compound 0.00316 µM): 86.9% | viability, T/C (second compound 0.01 µM, first compound 0.01 µM): 102% | viability, T/C (second compound 0.01 µM, first compound 0.0316 µM): 95.5% | viability, T/C (second compound 0.01 µM, first compound 0.1 µM): 109% | viability, T/C (second compound 0.0316 µM, first compound 0.000316 µM): 109% | viability, T/C (second compound 0.0316 µM, first compound 0.001 µM): 96.2% | viability, T/C (second compound 0.0316 µM, first compound 0.00316 µM): 113% | viability, T/C (second compound 0.0316 µM, first compound 0.01 µM): 114% | viability, T/C (second compound 0.0316 µM, first compound 0.0316 µM): 104% | viability, T/C (second compound 0.0316 µM, first compound 0.1 µM): 113% | viability, T/C (second compound 0.1 µM, first compound 0.000316 µM): 118% | viability, T/C (second compound 0.1 µM, first compound 0.001 µM): 118% | viability, T/C (second compound 0.1 µM, first compound 0.00316 µM): 115% | viability, T/C (second compound 0.1 µM, first compound 0.01 µM): 114% | viability, T/C (second compound 0.1 µM, first compound 0.0316 µM): 116% | viability, T/C (second compound 0.1 µM, first compound 0.1 µM): 113% | viability, T/C (second compound 0.316 µM, first compound 0.000316 µM): 126% | viability, T/C (second compound 0.316 µM, first compound 0.001 µM): 132% | viability, T/C (second compound 0.316 µM, first compound 0.00316 µM): 124% | viability, T/C (second compound 0.316 µM, first compound 0.01 µM): 127% | viability, T/C (second compound 0.316 µM, first compound 0.0316 µM): 130% | viability, T/C (second compound 0.316 µM, first compound 0.1 µM): 126% | viability, T/C (second compound 1 µM, first compound 0.000316 µM): 143% | viability, T/C (second compound 1 µM, first compound 0.001 µM): 141% | viability, T/C (second compound 1 µM, first compound 0.00316 µM): 140% | viability, T/C (second compound 1 µM, first compound 0.01 µM): 135% | viability, T/C (second compound 1 µM, first compound 0.0316 µM): 137% | viability, T/C (second compound 1 µM, first compound 0.1 µM): 138%
